Data from patent publication US4066510A, “Assay for mutagenesis in diploid human lymphoblasts” (Massachusetts Institute of Technology, priority 1976, dated 1978).
Where two headings read alike, the source gives them in different places.

How the values were obtained:
[1] = system: Mutant Type (HGPRT-) clones (6TG^R); test: cells; details: Homo sapiens
Procedure: Cell survival was measured by a soft-agar plating procedure that was originally devised for mouse myeloma cells and latter extended to human lymphoblasts. […] For plating efficiencies, confluent feeder layers were used of a fibroblast strain derived from a patient afflicted with the Lesch-Nyhan syndrome. […] The feeder layer was overlayed with a separation layer formed from 2.5 ml of RPMI 1640 medium containing 0.25% agarose (M.C.I. Biomedical), which was allowed to gel at room temperature (10 min). The cells were suspended in 2.5 ml of 0.25% agarose-RPMI 1640 layered over the separator layer; this layer was then allowed to gel before the plates were incubated at 37° in humidified air containing 5% CO2. On the following day, 1.0 ml of RPMI 1640 medium was placed on each plate, and another 1.0 ml was added 6 days later. Although microscopic colonies could be counted on day 7, 14 days were allowed in order to permit an increase in colony size to about 0.4 mm because this permitted the use of an automatic colony counter (Artek Systems). Cell counts in suspension were accomplished by counting samples on an electronic particle counter (Coulter Electronics).
HGPRT activity and plating efficiencies as a function of 6TG concentration for clones sensitive (6TG^S) or resistant (6TG^R) to 10 μg/ml of 6TG were determined.
Plating efficiencies were determined following the procedure of Example 1.

[2] = in vitro; details: human, mit-2 lymphoblasts
[3] = system: human lymphoblast line (MIT-2)
[4] = Stability of MNU solution (electronic absorption spectra); format: physicochemical; details: PBS, pH 7.2, kept cold
Procedure: Crystalline form methylnitrosourea (MNU) was dessicated and preweighed into aliquots. The quantitative electronic absorption spectra of one of these preweighed aliquots dissolved in phosphate buffered saline (PBS), pH7.2, was determined and found to remain stable for more than 60 minutes when kept cold. Fresh solutions were prepared 10 minutes prior to dosing by dissolving preweighed aliquots in PBS and filter-sterilizing the solutions. They were then used immediately for dosing cultures and simultaneously characterized by electronic absorbance spectra.

[5] = system: 6TG^S and 6TG^R clones; test: Dose-dependent sensitivity to MNU of 6TG^R clones compared with wild-type (6TG^S)
[6] = system: HGPRT; details: linear with time over 60 min, 5 × 10^6 cells/ml in the sonicate
Procedure: HGPRT activity was determined using a modification of a published technique.
The reaction was quenched by addition of 0.025 ml of 50 mM EDTA at 0°. DE-81 2.5-cm disks (DEAE cellulose; Whatman) were spotted with 0.025 ml of the quenched reaction mixture and allowed to dry at 25°. Disks were rinsed at 25° first with 40 ml of 1 mM ammonium formate and then with 20 ml of ethanol in a standard filter-holding chimney (Millipore). Disks were dried for 10 min at 60° in scintillation vials, to which 15 ml of Aquasol (New England Nuclear) were added after the vials had cooled. The vials were then counted on a Packard 2002 scintillation counter. With this system, the overall efficiency of counting phosphorylated purines bound to DE-81 filters was 4.10± 0.03% (S.E., n = 7).

Structure (SMILES): Nc1nc2nc[nH]c2c(=S)[nH]1 [6TG, 6-thioguanine]
- viability at 5 µg/mL ([1]; P1(0.5), read-out: RELATIVE SURVIVING FRACTION, clone P10, 5 μg/ml 6TG): 81%
- viability at 5 µg/mL ([1]; read-out: RELATIVE SURVIVING FRACTION, clone B2, 5 μg/ml 6TG): 94%
- viability at 10 µg/mL ([1]; read-out: RELATIVE SURVIVING FRACTION, clone B2, 10 μg/ml 6TG): 100%
- viability at 20 µg/mL ([1]; read-out: RELATIVE SURVIVING FRACTION, clone B2, 20 μg/ml 6TG): 71%
- viability at 5 µg/mL ([1]; read-out: RELATIVE SURVIVING FRACTION, clone B4, 5 μg/ml 6TG): 160%
- viability at 10 µg/mL ([1]; read-out: RELATIVE SURVIVING FRACTION, clone B4, 10 μg/ml 6TG): 150%
- viability at 20 µg/mL ([1]; read-out: RELATIVE SURVIVING FRACTION, clone B4, 20 μg/ml 6TG): 110%
- viability at 5 µg/mL ([1]; read-out: RELATIVE SURVIVING FRACTION, clone B6, 5 μg/ml 6TG): 110%
- viability at 10 µg/mL ([1]; read-out: RELATIVE SURVIVING FRACTION, clone B6, 10 μg/ml 6TG): 82%
- viability at 20 µg/mL ([1]; read-out: RELATIVE SURVIVING FRACTION, clone B6, 20 μg/ml 6TG): 76%
- viability at 5 µg/mL ([1]; read-out: RELATIVE SURVIVING FRACTION, clone B7, 5 μg/ml 6TG): 120%
- viability at 10 µg/mL ([1]; read-out: RELATIVE SURVIVING FRACTION, clone B7, 10 μg/ml 6TG): 66%
- viability at 20 µg/mL ([1]; read-out: RELATIVE SURVIVING FRACTION, clone B7, 20 μg/ml 6TG): 57%
- viability at 5 µg/mL ([1]; read-out: RELATIVE SURVIVING FRACTION, clone B8, 5 μg/ml 6TG): 100%
- viability at 10 µg/mL ([1]; read-out: RELATIVE SURVIVING FRACTION, clone B8, 10 μg/ml 6TG): 93%
- viability at 20 µg/mL ([1]; read-out: RELATIVE SURVIVING FRACTION, clone B8, 20 μg/ml 6TG): 80%
- viability at 5 µg/mL ([1]; read-out: RELATIVE SURVIVING FRACTION, clone B9, 5 μg/ml 6TG): 110%
- viability at 10 µg/mL ([1]; read-out: RELATIVE SURVIVING FRACTION, clone B9, 10 μg/ml 6TG): 120%
- viability at 20 µg/mL ([1]; read-out: RELATIVE SURVIVING FRACTION, clone B9, 20 μg/ml 6TG): 68%
- viability at 5 µg/mL ([1]; read-out: RELATIVE SURVIVING FRACTION, clone B13, 5 μg/ml 6TG): 86%
- viability at 10 µg/mL ([1]; read-out: RELATIVE SURVIVING FRACTION, clone B13, 10 μg/ml 6TG): 100%
- viability at 20 µg/mL ([1]; read-out: RELATIVE SURVIVING FRACTION, clone B13, 20 μg/ml 6TG): 45%
- viability at 5 µg/mL ([1]; read-out: RELATIVE SURVIVING FRACTION, clone B15, 5 μg/ml 6TG): 71%
- viability at 10 µg/mL ([1]; read-out: RELATIVE SURVIVING FRACTION, clone B15, 10 μg/ml 6TG): 87%
- viability at 20 µg/mL ([1]; read-out: RELATIVE SURVIVING FRACTION, clone B15, 20 μg/ml 6TG): 37%
- viability at 5 µg/mL ([1]; read-out: RELATIVE SURVIVING FRACTION, clone B17, 5 μg/ml 6TG): 110%
- viability at 10 µg/mL ([1]; read-out: RELATIVE SURVIVING FRACTION, clone B17, 10 μg/ml 6TG): 140%
- viability at 20 µg/mL ([1]; read-out: RELATIVE SURVIVING FRACTION, clone B17, 20 μg/ml 6TG): 160%
- viability at 5 µg/mL ([1]; read-out: RELATIVE SURVIVING FRACTION, clone B20, 5 μg/ml 6TG): 90%
- viability at 10 µg/mL ([1]; read-out: RELATIVE SURVIVING FRACTION, clone B20, 10 μg/ml 6TG): 83%
- viability at 20 µg/mL ([1]; read-out: RELATIVE SURVIVING FRACTION, clone B20, 20 μg/ml 6TG): 51%
- viability at 10 µg/mL ([1]; read-out: RELATIVE SURVIVING FRACTION, clone D3, 10 μg/ml 6TG): 71%
- viability at 20 µg/mL ([1]; read-out: RELATIVE SURVIVING FRACTION, clone D3, 20 μg/ml 6TG): 73%
- viability at 5 µg/mL ([1]; read-out: RELATIVE SURVIVING FRACTION, clone P1, 5 μg/ml 6TG): 112%
- viability at 10 µg/mL ([1]; read-out: RELATIVE SURVIVING FRACTION, clone P1, 10 μg/ml 6TG): 75%
- viability at 20 µg/mL ([1]; read-out: RELATIVE SURVIVING FRACTION, clone P1, 20 μg/ml 6TG): 86%
- viability at 5 µg/mL ([1]; read-out: RELATIVE SURVIVING FRACTION, clone P2, 5 μg/ml 6TG): 173%
- viability at 10 µg/mL ([1]; read-out: RELATIVE SURVIVING FRACTION, clone P2, 10 μg/ml 6TG): 121%
- viability at 20 µg/mL ([1]; read-out: RELATIVE SURVIVING FRACTION, clone P2, 20 μg/ml 6TG): 94%
- viability at 5 µg/mL ([1]; read-out: RELATIVE SURVIVING FRACTION, clone P6, 5 μg/ml 6TG): 103%
- viability at 10 µg/mL ([1]; read-out: RELATIVE SURVIVING FRACTION, clone P6, 10 μg/ml 6TG): 97%
- viability at 20 µg/mL ([1]; read-out: RELATIVE SURVIVING FRACTION, clone P6, 20 μg/ml 6TG): 67%
- viability at 5 µg/mL ([1]; read-out: RELATIVE SURVIVING FRACTION, clone P7, 5 μg/ml 6TG): 80%
- viability at 10 µg/mL ([1]; read-out: RELATIVE SURVIVING FRACTION, clone P7, 10 μg/ml 6TG): 60%
- viability at 20 µg/mL ([1]; read-out: RELATIVE SURVIVING FRACTION, clone P7, 20 μg/ml 6TG): 54%
- viability at 5 µg/mL ([1]; read-out: RELATIVE SURVIVING FRACTION, clone P9, 5 μg/ml 6TG): 86%
- viability at 10 µg/mL ([1]; read-out: RELATIVE SURVIVING FRACTION, clone P9, 10 μg/ml 6TG): 45%
- viability at 20 µg/mL ([1]; read-out: RELATIVE SURVIVING FRACTION, clone P9, 20 μg/ml 6TG): 22%
- viability at 10 µg/mL ([1]; read-out: RELATIVE SURVIVING FRACTION, clone P10, 10 μg/ml 6TG): 41%
- viability at 20 µg/mL ([1]; read-out: RELATIVE SURVIVING FRACTION, clone P10, 20 μg/ml 6TG): 30%
- viability at 5 µg/mL ([1]; read-out: RELATIVE SURVIVING FRACTION, clone P11, 5 μg/ml 6TG): 100%
- viability at 10 µg/mL ([1]; read-out: RELATIVE SURVIVING FRACTION, clone P11, 10 μg/ml 6TG): 55%
- viability at 20 µg/mL ([1]; read-out: RELATIVE SURVIVING FRACTION, clone P11, 20 μg/ml 6TG): 24%
- viability at 5 µg/mL ([1]; read-out: RELATIVE SURVIVING FRACTION, clone P15, 5 μg/ml 6TG): 87%
- viability at 10 µg/mL ([1]; read-out: RELATIVE SURVIVING FRACTION, clone P15, 10 μg/ml 6TG): 58%
- viability at 20 µg/mL ([1]; read-out: RELATIVE SURVIVING FRACTION, clone P15, 20 μg/ml 6TG): 27%
- viability at 5 µg/mL ([1]; read-out: RELATIVE SURVIVING FRACTION, clone P18, 5 μg/ml 6TG): 55%
- viability at 10 µg/mL ([1]; read-out: RELATIVE SURVIVING FRACTION, clone P18, 10 μg/ml 6TG): 62%
- viability at 20 µg/mL ([1]; read-out: RELATIVE SURVIVING FRACTION, clone P18, 20 μg/ml 6TG): 45%

Structure (SMILES): CCOS(C)(=O)=O [EMS, ethyl methane sulphonate]
- viability at 24 h [2]: 0.12%
- EST. INITIAL GROWTH DELAY [3]: 0

Structure (SMILES): CN(N=O)C(N)=O [MNU, methylnitrosourea]
- stability of electronic absorption spectrum in solution [4]: more than 60 minutes
- viability at 24 h [2]: 0.1%
- EST. INITIAL GROWTH DELAY [3]: 0
- absolute plating efficiency in the absence of 6TG, stable maximum [3]: about 0.28 clones observed/particle plated
- population increase before the culture's apparent cessation of growth [3]: about 2.25 times
- survival fraction of one 6TG^R clone ([5]; 1 6TG^R clone, relatively high concentration of MNU): high survival fraction
- MNU toxicity, 6TG^S versus 6TG^R clones ([5]; 4 6TG^S and 4 6TG^R clones): the average behavior of the two groups was virtually identical

Structure (SMILES): O=c1[nH]cnc2nc[nH]c12 [hypoxanthine]
- phosphoribosylation velocity [6]: 6.4 ± 0.4 mmoles of hypoxanthine/min
